Reference: patent US10865191B2, “Heterocyclic compounds useful as modulators of TNF alpha” (BRISTOL-MYERS SQUIBB COMPANY, priority 2015, dated 2020)

These compounds were tested against TNFα (Homo sapiens, UniProt P01375) (assay: TNF induced HEK-Blue assay (NF-kB-driven secreted alkaline phosphatase reporter)). Details: TNFα 0.5 ng/mL, HEK-Blue-CD40L cells, 18 h; read-out: TNF induced HEK-Blue assay IC50 value.
Assay type: cell-based
Procedure, shortened: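 HEK-Blue-CD40L cells (NF-kB-driven SEAP reporter), 20,000/well, added after 30 min pre-incubation of compound (0.004–25 μM final) with TNFα 0.5 ng/mL final at 37 °C; 18 h incubation. SEAP read with QUANTI-Blue at 620 nm; IC50 from 4-parameter logistic fit, normalized to unstimulated and stimulated DMSO controls.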

Chain of TNFα (P01375 77-233 limits assumed): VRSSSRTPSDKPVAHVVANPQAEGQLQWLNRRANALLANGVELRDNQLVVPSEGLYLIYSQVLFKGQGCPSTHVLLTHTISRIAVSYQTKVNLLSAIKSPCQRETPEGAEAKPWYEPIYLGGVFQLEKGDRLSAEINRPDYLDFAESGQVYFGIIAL

| IC50 | SMILES |
| --- | --- |
| 1000 to 10000 nM | C[C@@H](Nc1c(Cl)cnc2ccc(-c3ccc(C4(NC(N)=O)CCC4)cc3)cc12)c1ccccc1F [Example 483, (R)-1-(1-(4-(3-chloro-4-((1-(2-fluorophenyl)ethyl)amino)quinolin-6-yl)phenyl)cyclobutyl)urea] |
| < 1000 nM | Cc1ccc(F)c(C(C)Nc2c(Cl)cnc3ccc(-c4cnc(N5CCNC(=O)C5)nc4)cc23)n1 (stereo not shown) [Example 484, 4-(5-(3-chloro-4-((1-(3-fluoro-6-methylpyridin-2-yl)ethyl)amino)quinolin-6-yl)pyrimidin-2-yl)piperazin-2-one] |
| 1000 to 10000 nM | CC(C)(O)c1ncc(-c2nc3c(N[C@H](c4cc(C(=O)O)ccc4F)C(F)F)c(Cl)cnc3cc2F)cn1 [Example 485, (R)-3-(1-((3-chloro-7-fluoro-6-(2-(2-hydroxypropan-2-yl)pyrimidin-5-yl)-1,5-naphthyridin-4-yl)amino)-2,2-difluoroethyl)-4-fluorobenzoic acid] |
| < 1000 nM | CC(C)(O)c1ncc(-c2nc3c(N[C@H](c4cc(CO)ccc4F)C(F)F)c(Cl)cnc3cc2F)cn1 [Example 486, (R)-2-(5-(7-chloro-8-((2,2-difluoro-1-(2-fluoro-5-(hydroxymethyl)phenyl)ethyl)amino)-3-fluoro-1,5-naphthyridin-2-yl)pyrimidin-2-yl)propan-2-ol] |
| < 1000 nM | CC(C)(O)c1ncc(-c2nc3c(N[C@H](c4cc(C(N)=O)ccc4F)C(F)F)c(Cl)cnc3cc2F)cn1 [Example 487, (R)-3-(1-((3-chloro-7-fluoro-6-(2-(2-hydroxypropan-2-yl)pyrimidin-5-yl)-1,5-naphthyridin-4-yl)amino)-2,2-difluoroethyl)-4-fluorobenzamide] |
| < 1000 nM | CC(C)(O)c1ncc(-c2nc3c(N[C@H](c4cc(C(O)CO)ccc4F)C(F)F)c(Cl)cnc3cc2F)cn1 (stereo partly drawn) [Example 488, 1-(3-((R)-1-((3-chloro-7-fluoro-6-(2-(2-hydroxypropan-2-yl)pyrimidin-5-yl)-1,5-naphthyridin-4-yl)amino)-2,2-difluoroethyl)-4-fluorophenyl)ethane-1,2-diol] |
| < 1000 nM | CC(C)(O)c1ncc(-c2nc3c(N[C@H](c4cc(C#N)ccc4F)C(F)F)c(Cl)cnc3cc2F)cn1 [Example 489, (R)-3-(1-((3-chloro-7-fluoro-6-(2-(2-hydroxypropan-2-yl)pyrimidin-5-yl)-1,5-naphthyridin-4-yl)amino)-2,2-difluoroethyl)-4-fluorobenzonitrile] |
| < 1000 nM | C[C@@H](Nc1c(Cl)cnc2ccc(-c3ccc(C(C)(C)O)cc3)cc12)c1cnccn1 [Example 490, (R)-2-(4-(3-chloro-4-((1-(pyrazin-2-yl)ethyl)amino)quinolin-6-yl)phenyl)propan-2-ol] |
| < 1000 nM | Cc1nc2cc(F)c(-c3cnc(C(C)(C)O)nc3)nc2c(N[C@@H](c2cc(C(O)CO)ccc2F)C(F)F)c1Cl (stereo partly drawn) [Example 491, 1-(3-((S)-1-((3-chloro-7-fluoro-6-(2-(2-hydroxypropan-2-yl)pyrimidin-5-yl)-2-methyl-1,5-naphthyridin-4-yl)amino)-2,2-difluoroethyl)-4-fluorophenyl)ethane-1,2-diol] |
| < 1000 nM | CC(C)(O)c1ncc(-c2nc3c(N[C@@H](c4cc(C(O)CO)ccc4F)C(F)F)c(Cl)cnc3cc2F)cn1 (stereo partly drawn) [Example 492, 1-(3-((S)-1-((3-chloro-7-fluoro-6-(2-(2-hydroxypropan-2-yl)pyrimidin-5-yl)-1,5-naphthyridin-4-yl)amino)-2,2-difluoroethyl)-4-fluorophenyl)ethane-1,2-diol] |
| < 1000 nM | CC(C)(O)c1ncc(-c2nc3c(N[C@@H](c4cc(C(N)=O)ccc4F)C(F)F)c(Cl)cnc3cc2F)cn1 [Example 493, (S)-3-(1-((3-chloro-7-fluoro-6-(2-(2-hydroxypropan-2-yl)pyrimidin-5-yl)-1,5-naphthyridin-4-yl)amino)-2,2-difluoroethyl)-4-fluorobenzamide] |
| < 1000 nM | C=Cc1ccc(F)c([C@H](Nc2c(Cl)c(C)nc3cc(F)c(-c4cnc(C(C)(C)O)nc4)nc23)C(F)F)c1 [Example 494, (S)-2-(5-(7-chloro-8-((2,2-difluoro-1-(2-fluoro-5-vinylphenyl)ethyl)amino)-3-fluoro-6-methyl-1,5-naphthyridin-2-yl)pyrimidin-2-yl) propan-2-ol] |
| < 1000 nM | C=Cc1ccc(F)c([C@H](Nc2c(Cl)cnc3cc(F)c(-c4cnc(C(C)(C)O)nc4)nc23)C(F)F)c1 [Example 495, (S)-2-(5-(7-chloro-8-((2,2-difluoro-1-(2-fluoro-5-vinylphenyl)ethyl)amino)-3-fluoro-1,5-naphthyridin-2-yl)pyrimidin-2-yl)propan-2-ol] |
| < 1000 nM | Cc1nc2cc(F)c(-c3cnc(C(C)(C)O)nc3)nc2c(N[C@@H](c2cc(CO)ccc2F)C(F)F)c1Cl [Example 496, (S)-2-(5-(7-chloro-8-((2,2-difluoro-1-(2-fluoro-5-(hydroxymethyl)phenyl)ethyl)amino)-3-fluoro-6-methyl-1,5-naphthyridin-2-yl)pyrimidin-2-yl)propan-2-ol] |
| < 1000 nM | Cc1nc2cc(F)c(-c3cnc(C(C)(C)O)nc3)nc2c(N[C@@H](c2cc(C(N)=O)ccc2F)C(F)F)c1Cl [Example 497, (S)-3-(1-((3-chloro-7-fluoro-6-(2-(2-hydroxypropan-2-yl)pyrimidin-5-yl)-2-methyl-1,5-naphthyridin-4-yl)amino)-2,2-difluoroethyl)-4-fluorobenzamide] |
| < 1000 nM | CC(C)(O)c1ncc(-c2nc3c(N[C@@H](c4cc(C#N)ccc4F)C(F)F)c(Cl)cnc3cc2F)cn1 [Example 498, (S)-3-(1-((3-chloro-7-fluoro-6-(2-(2-hydroxypropan-2-yl)pyrimidin-5-yl)-1,5-naphthyridin-4-yl)amino)-2,2-difluoroethyl)-4-fluorobenzonitrile] |

| IC50 | SMILES |
| --- | --- |
| < 1000 nM | Cc1nc2cc(F)c(-c3cnc(C(C)(C)O)nc3)nc2c(N[C@@H](c2cc(C#N)ccc2F)C(F)F)c1Cl [Example 499, (S)-3-(1-((3-chloro-7-fluoro-6-(2-(2-hydroxypropan-2-yl)pyrimidin-5-yl)-2-methyl-1,5-naphthyridin-4-yl)amino)-2,2-difluoroethyl)-4-fluorobenzonitrile] |
| < 1000 nM | Cc1nc2ccc(-c3ccc(C(C)(C)O)cc3)cc2c(N[C@H](C)c2ccccc2F)c1Cl [Example 500, (R)-2-(4-(3-chloro-4-((1-(2-fluorophenyl)ethyl)amino)-2-methylquinolin-6-yl)phenyl)propan-2-ol] |
| < 1000 nM | CC(C)(O)c1ncc(-c2nc3c(N[C@@H](c4cc(CO)ccc4F)C(F)F)c(Cl)cnc3cc2F)cn1 [Example 501, (S)-2-(5-(7-chloro-8-((2,2-difluoro-1-(2-fluoro-5-(hydroxymethyl)phenyl)ethyl)amino)-3-fluoro-1,5-naphthyridin-2-yl)pyrimidin-2-yl)propan-2-ol] |
| 1000 to 10000 nM | Cc1nc2ccc(-c3ccc(C(C)(C)O)cc3)cc2c(NC(C)c2cccs2)c1Cl (stereo not shown) [Example 502, 2-(4-(3-chloro-2-methyl-4-((1-(thiophen-2-yl)ethyl)amino)quinolin-6-yl)phenyl)propan-2-ol] |
| 1000 to 10000 nM | Cc1nc2ccc(-c3ccc(C(C)(C)O)cc3)cc2c(NC(C)c2ccsc2)c1Cl (stereo not shown) [Example 503, 2-(4-(3-chloro-2-methyl-4-((1-(thiophen-3-yl)ethyl)amino)quinolin-6-yl)phenyl)propan-2-ol] |
| < 1000 nM | C[C@@H](Nc1c(Cl)cnc2cc(F)c(-c3cnc(C(C)(C)O)nc3)nc12)c1cc(C(O)CO)ccc1F (stereo partly drawn) [Example 504, 1-(3-((R)-1-((3-chloro-7-fluoro-6-(2-(2-hydroxypropan-2-yl)pyrimidin-5-yl)-1,5-naphthyridin-4-yl)amino)ethyl)-4-fluorophenyl)ethane-1,2-diol] |
| < 1000 nM | C[C@@H](Nc1c(Cl)cnc2cc(F)c(-c3cnc(C(C)(C)O)nc3)nc12)c1cc(CO)ccc1F [Example 505, (R)-2-(5-(7-chloro-3-fluoro-8-((1-(2-fluoro-5-(hydroxymethyl)phenyl)ethyl)amino)-1,5-naphthyridin-2-yl)pyrimidin-2-yl)propan-2-ol] |
| < 1000 nM | C[C@@H](Nc1c(Cl)cnc2ccccc12)c1cc(-c2ccc(N(C)C)nc2)ccc1F [Example 506, (R)-3-chloro-N-(1-(5-(6-(dimethylamino)pyridin-3-yl)-2-fluorophenyl)ethyl) quinolin-4-amine] |
| < 1000 nM | Cc1cncc(-c2ccc(F)c([C@@H](C)Nc3c(Cl)cnc4ccccc34)c2)c1 [Example 507, (R)-3-chloro-N-(1-(2-fluoro-5-(5-methylpyridin-3-yl)phenyl)ethyl)quinolin-4-amine] |
| < 1000 nM | CCc1ccc(-c2ccc(F)c([C@@H](C)Nc3c(Cl)cnc4ccccc34)c2)cn1 [Example 508, (R)-3-chloro-N-(1-(5-(6-ethylpyridin-3-yl)-2-fluorophenyl)ethyl)quinolin-4-amine] |
| 1000 to 10000 nM | Fc1ccc(Br)cc1[C@H](Nc1c(Cl)cnc2ccccc12)C(F)F [Example 509, (S)—N-(1-(5-bromo-2-fluorophenyl)-2,2-difluoroethyl)-3-chloroquinolin-4-amine] |
| 1000 to 10000 nM | Fc1ccc(Br)cc1[C@@H](Nc1c(Cl)cnc2ccccc12)C(F)F [Example 510, (R)—N-(1-(5-bromo-2-fluorophenyl)-2,2-difluoroethyl)-3-chloroquinolin-4-amine] |
| < 1000 nM | C[C@@H](Nc1c(Cl)cnc2ccccc12)c1cc(-c2cncc(N)c2)ccc1F [Example 511, (R)—N-(1-(5-(5-aminopyridin-3-yl)-2-fluorophenyl)ethyl)-3-chloroquinolin-4-amine] |
| 10000 to 25000 nM | C[C@@H](Nc1c(Cl)cnc2ccccc12)c1cc(-c2cccnc2N)ccc1F [Example 512, (R)—N-(1-(5-(2-aminopyridin-3-yl)-2-fluorophenyl)ethyl)-3-chloroquinolin-4-amine] |
| 1000 to 10000 nM | COc1cc(-c2ccc(F)c([C@@H](C)Nc3c(Cl)cnc4ccccc34)c2)c(OC)nn1 [Example 513, (R)-3-chloro-N-(1-(5-(3,6-dimethoxypyridazin-4-yl)-2-fluorophenyl)ethyl)quinolin-4-amine] |
